Laboratory results: patent publication US11000033B2, “Ketone or oxime compound, and herbicide” (NISSAN CHEMICAL CORPORATION, priority 2014, dated 2021)

Key:
Type in all cases: in vivo
Digitaria ciliaris = assay: Test Example 5: herbicidal effect by foliage application, plastic box (symbol F); settings: 320 g/ha, 3 weeks after application
Outline: (§1)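 Greenhouse foliar test: seedlings at 14 days, grown 25° C. to 30° C. in sterilized diluvial soil; compound applied as an aqueous dilution of an emulsion; response read 3 weeks after spraying.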

Abutilon theophrasti [1] = assay: Test Example 5: herbicidal effect by foliage application, plastic box (symbol M); settings: 320 g/ha, 3 weeks after application
Outline: as §1

corn = assay: Test Example 4: effect on crop by soil treatment (symbol c); settings: application herbicide amount 320 g/ha
Outline: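 Soil-treatment setup: crop and weed seeds were spot-sown into sterilized diluvial soil, then buried beneath approximately 1.5 cm of it, and the boxes were housed in a 25–30° C. greenhouse.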

Amaranthus retroflexus = assay: Test Example 5: herbicidal effect by foliage application, plastic box (symbol N); settings: 320 g/ha, 3 weeks after application
Outline: as §1

Abutilon theophrasti [2] = assay: Test Example 4: herbicidal effect by soil treatment (symbol M); settings: application herbicide amount 320 g/ha
Outline: (§2)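 Seeds were sown in sterilized diluvial soil, covered with about 1.5 cm of soil, and the soil surface was sprayed with a water-diluted emulsion of the compound at a predetermined rate. Plants grew in a greenhouse at 25° C. to 30° C.; effects were scored visually 3 weeks after application.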

Scirpus juncoides = assay: Test Example 1: herbicidal activity, application before weed generation in submerged conditions (symbol B); settings: application herbicide amount 320 g/ha
Outline: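 Mixed weed seeds sown in alluvial soil under 4 cm of water, with rice seedlings at the 2.5-leaf stage added. Same-day treatment: emulsion diluted to a set herbicide amount onto the water. Three weeks at 25–30 °C, then graded on a six-step scale.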

Cyperus difformis = assay: Test Example 3: herbicidal effect by foliage application, Wagner pot (symbol E); settings: application herbicide amount 320 g/ha
Outline: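 Foliar spray of water-diluted emulsion formulation at a predetermined herbicide amount onto 14-day-old plants in flooded alluvial soil (water depth 0.1–0.5 cm), greenhouse 25–30 °C; rice sown alongside. Scored 3 wk post-application on set criteria.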

Alopecurus myosuroides = assay: Test Example 4: herbicidal effect by soil treatment (symbol J); settings: application herbicide amount 320 g/ha
Outline: as §2

For CON=CC1CC(O)=C(c2c(C)cc(C)cc2C)C1=O (mixture of isomers) [3-001], the “F: Digitaria ciliaris, herbicidal effect grade” value (shortened to “F: Digitaria ciliaris”) (Digitaria ciliaris) was 4 (Herbicidal ratio of 70% or higher and lower than 90%), the “M: Abutilon theophrasti, herbicidal effect grade” value (shortened to “M: Abutilon theophrasti”) (Abutilon theophrasti [1]) was 0 (Herbicidal ratio of 5% or lower (almost no effect)) and the “c: corn, effect on crop grade” value (corn) was 0 (Herbicidal ratio of 5% or lower (almost no effect)). The “N: Amaranthus retroflexus, herbicidal effect grade” value (shortened to “N: Amaranthus retroflexus”) (Amaranthus retroflexus) was 0 (Herbicidal ratio of 5% or lower (almost no effect)), the “M: Abutilon theophrasti” value (Abutilon theophrasti [2]) was 0 (Herbicidal ratio of 5% or lower (almost no effect)) and the “Herbicidal effect grade, B: Scirpus juncoides” value (shortened to “Herbicidal effect grade, B”) (Scirpus juncoides) was 0 (Herbicidal ratio of 5% or lower (almost no effect)). The “herbicidal effect on E, grade 0-5” value (Cyperus difformis) was 0 (Herbicidal ratio of 5% or lower (almost no effect)) and the “J: Alopecurus myosuroides, herbicidal effect grade” value (from here on “J: Alopecurus myosuroides”) (Alopecurus myosuroides) was 1 (Herbicidal ratio of 5% or higher and lower than 20%).
In the case of CON=C(C)CC1CC(OCCSC)=C(c2c(C)cc(C)cc2C)C1=O (centres unmarked) [1-011], the “F: Digitaria ciliaris” value (Digitaria ciliaris) is reported as 3 (Herbicidal ratio of 40% or higher and lower than 70%), the “M: Abutilon theophrasti” value (Abutilon theophrasti [1]) is reported as 0 (Herbicidal ratio of 5% or lower (almost no effect)) and the “c (corn) effect on crop grade” value (corn) is reported as 0 (Herbicidal ratio of 5% or lower (almost no effect)). For the same molecule, the “N: Amaranthus retroflexus” value (Amaranthus retroflexus) was 0 (Herbicidal ratio of 5% or lower (almost no effect)), the “M (Abutilon theophrasti) herbicidal effect grade” value (Abutilon theophrasti [2]) was 0 (Herbicidal ratio of 5% or lower (almost no effect)) and the “Herbicidal effect grade, B” value (Scirpus juncoides) was 0 (Herbicidal ratio of 5% or lower (almost no effect)). The “herbicidal effect on E, grade 0-5” value (Cyperus difformis) was 0 (Herbicidal ratio of 5% or lower (almost no effect)) and the “J (Alopecurus myosuroides) herbicidal effect grade” value (Alopecurus myosuroides) was 0 (Herbicidal ratio of 5% or lower (almost no effect)).
With Cc1cc(C)c(C2=C(O)CC(CC(=O)C(C)(C)C)C2=O)c(C)c1 (centres unmarked) [2-022] the “F: Digitaria ciliaris” value (Digitaria ciliaris) was 0 (Herbicidal ratio of 5% or lower (almost no effect)), the “M: Abutilon theophrasti” value (Abutilon theophrasti [1]) was 0 (Herbicidal ratio of 5% or lower (almost no effect)) and the “c: corn, effect on crop grade” value (corn) was 0 (Herbicidal ratio of 5% or lower (almost no effect)). The “N: Amaranthus retroflexus” value (Amaranthus retroflexus) was 0 (Herbicidal ratio of 5% or lower (almost no effect)), the “M: Abutilon theophrasti” value (Abutilon theophrasti [2]) was 0 (Herbicidal ratio of 5% or lower (almost no effect)) and the “Herbicidal effect grade, B” value (Scirpus juncoides) was 0 (Herbicidal ratio of 5% or lower (almost no effect)). For the same molecule, the “herbicidal effect on E, grade 0-5” value (Cyperus difformis) was 2 (Herbicidal ratio of 20% or higher and lower than 40%) and the “J: Alopecurus myosuroides” value (Alopecurus myosuroides) was 0 (Herbicidal ratio of 5% or lower (almost no effect)).
With CCCC(=O)C(C(=O)OC)C1CC(O)=C(c2c(C)cc(C)cc2C)C1=O (centres unmarked) [2-020] the “F: Digitaria ciliaris” value (Digitaria ciliaris) was 3 (Herbicidal ratio of 40% or higher and lower than 70%), the “M: Abutilon theophrasti” value (Abutilon theophrasti [1]) was 0 (Herbicidal ratio of 5% or lower (almost no effect)) and the “c: corn, effect on crop grade” value (corn) was 3 (Herbicidal ratio of 40% or higher and lower than 70%). For the same molecule, the “N: Amaranthus retroflexus” value (Amaranthus retroflexus) was 0 (Herbicidal ratio of 5% or lower (almost no effect)), the “M: Abutilon theophrasti” value (Abutilon theophrasti [2]) was 0 (Herbicidal ratio of 5% or lower (almost no effect)) and the “Herbicidal effect grade, B” value (Scirpus juncoides) was 0 (Herbicidal ratio of 5% or lower (almost no effect)). The “herbicidal effect on E, grade 0-5” value (Cyperus difformis) was 0 (Herbicidal ratio of 5% or lower (almost no effect)) and the “J: Alopecurus myosuroides” value (Alopecurus myosuroides) was 0 (Herbicidal ratio of 5% or lower (almost no effect)).
In the case of CCC(C)C(=O)CC1CC(O)=C(c2c(C)cc(C)cc2C)C1=O (centres unmarked) [2-024], the “F: Digitaria ciliaris” value (Digitaria ciliaris) is reported as 4 (Herbicidal ratio of 70% or higher and lower than 90%), the “M: Abutilon theophrasti” value (Abutilon theophrasti [1]) is reported as 0 (Herbicidal ratio of 5% or lower (almost no effect)) and the “c: corn, effect on crop grade” value (corn) is reported as 0 (Herbicidal ratio of 5% or lower (almost no effect)). For the same molecule, the “N: Amaranthus retroflexus” value (Amaranthus retroflexus) was 0 (Herbicidal ratio of 5% or lower (almost no effect)), the “M: Abutilon theophrasti” value (Abutilon theophrasti [2]) was 0 (Herbicidal ratio of 5% or lower (almost no effect)) and the “Herbicidal effect grade, B” value (Scirpus juncoides) was 0 (Herbicidal ratio of 5% or lower (almost no effect)). The “herbicidal effect on E, grade 0-5” value (Cyperus difformis) was 0 (Herbicidal ratio of 5% or lower (almost no effect)) and the “J: Alopecurus myosuroides” value (Alopecurus myosuroides) was 0 (Herbicidal ratio of 5% or lower (almost no effect)).
Cc1cc(C)c(C2=C(O)CC(CC(=O)C3CC3)C2=O)c(C)c1 (centres unmarked) [2-017] was tested, and the “F: Digitaria ciliaris” value (Digitaria ciliaris) was 5 (Herbicidal ratio of 90% or more (almost completely withered)), the “M: Abutilon theophrasti” value (Abutilon theophrasti [1]) was 1 (Herbicidal ratio of 5% or higher and lower than 20%) and the “c: corn, effect on crop grade” value (corn) was 0 (Herbicidal ratio of 5% or lower (almost no effect)). For the same molecule, the “N: Amaranthus retroflexus” value (Amaranthus retroflexus) was 0 (Herbicidal ratio of 5% or lower (almost no effect)), the “M: Abutilon theophrasti” value (Abutilon theophrasti [2]) was 4 (Herbicidal ratio of 70% or higher and lower than 90%) and the “Herbicidal effect grade, B” value (Scirpus juncoides) was 5 (Herbicidal ratio of 90% or more (almost completely withered)). The “herbicidal effect on E, grade 0-5” value (Cyperus difformis) was 5 (Herbicidal ratio of 90% or more (almost completely withered)) and the “J: Alopecurus myosuroides” value (Alopecurus myosuroides) was 3 (Herbicidal ratio of 40% or higher and lower than 70%).
In the case of CON=C(C)CC1CC(O)=C(c2c(C)cc(C)cc2OC)C1=O (centres unmarked) [6-037, 3-hydroxy-2-(2-methoxy-4,6-dimethylphenyl)-5-{2-(methoxyimino)propyl}cyclopent-2-enone], the “F: Digitaria ciliaris” value (Digitaria ciliaris) is reported as 5 (Herbicidal ratio of 90% or more (almost completely withered)), the “M: Abutilon theophrasti” value (Abutilon theophrasti [1]) is reported as 5 (Herbicidal ratio of 90% or more (almost completely withered)) and the “c: corn, effect on crop grade” value (corn) is reported as 5 (Herbicidal ratio of 90% or more (almost completely withered)). For the same molecule, the “N: Amaranthus retroflexus” value (Amaranthus retroflexus) was 5 (Herbicidal ratio of 90% or more (almost completely withered)), the “M: Abutilon theophrasti” value (Abutilon theophrasti [2]) was 5 (Herbicidal ratio of 90% or more (almost completely withered)) and the “Herbicidal effect grade, B” value (Scirpus juncoides) was 5 (Herbicidal ratio of 90% or more (almost completely withered)). The “herbicidal effect on E, grade 0-5” value (Cyperus difformis) was 5 (Herbicidal ratio of 90% or more (almost completely withered)) and the “J: Alopecurus myosuroides” value (Alopecurus myosuroides) was 5 (Herbicidal ratio of 90% or more (almost completely withered)).
CON=C(C)CC1CC(OC(=O)OC)=C(c2c(C)cc(C)cc2C)C1=O (centres unmarked) [1-014] was tested, and the “F: Digitaria ciliaris” value (Digitaria ciliaris) was 5 (Herbicidal ratio of 90% or more (almost completely withered)), the “M: Abutilon theophrasti” value (Abutilon theophrasti [1]) was 5 (Herbicidal ratio of 90% or more (almost completely withered)) and the “c (corn) effect on crop grade” value (corn) was 4 (Herbicidal ratio of 70% or higher and lower than 90%). For the same molecule, the “N: Amaranthus retroflexus” value (Amaranthus retroflexus) was 5 (Herbicidal ratio of 90% or more (almost completely withered)), the “M (Abutilon theophrasti) herbicidal effect grade” value (Abutilon theophrasti [2]) was 4 (Herbicidal ratio of 70% or higher and lower than 90%) and the “Herbicidal effect grade, B” value (Scirpus juncoides) was 5 (Herbicidal ratio of 90% or more (almost completely withered)). The “herbicidal effect on E, grade 0-5” value (Cyperus difformis) was 5 (Herbicidal ratio of 90% or more (almost completely withered)) and the “J (Alopecurus myosuroides) herbicidal effect grade” value (Alopecurus myosuroides) was 5 (Herbicidal ratio of 90% or more (almost completely withered)).
CON=C(C)CC1CC(OCC#N)=C(c2c(C)cc(C)cc2C)C1=O (centres unmarked) [1-013] was tested, and the “F: Digitaria ciliaris” value (Digitaria ciliaris) was 0 (Herbicidal ratio of 5% or lower (almost no effect)), the “M: Abutilon theophrasti” value (Abutilon theophrasti [1]) was 0 (Herbicidal ratio of 5% or lower (almost no effect)) and the “c (corn) effect on crop grade” value (corn) was 0 (Herbicidal ratio of 5% or lower (almost no effect)). The “N: Amaranthus retroflexus” value (Amaranthus retroflexus) was 0 (Herbicidal ratio of 5% or lower (almost no effect)), the “M (Abutilon theophrasti) herbicidal effect grade” value (Abutilon theophrasti [2]) was 0 (Herbicidal ratio of 5% or lower (almost no effect)) and the “Herbicidal effect grade, B” value (Scirpus juncoides) was 0 (Herbicidal ratio of 5% or lower (almost no effect)). For the same molecule, the “herbicidal effect on E, grade 0-5” value (Cyperus difformis) was 0 (Herbicidal ratio of 5% or lower (almost no effect)) and the “J (Alopecurus myosuroides) herbicidal effect grade” value (Alopecurus myosuroides) was 0 (Herbicidal ratio of 5% or lower (almost no effect)).
CON=C(C)CC1CC(O)=C(c2c(C)cc(-c3ccc(C(F)(F)F)cc3)cc2C)C1=O (mixture of isomers) [6-016] was tested, and the “F: Digitaria ciliaris” value (Digitaria ciliaris) was 5 (Herbicidal ratio of 90% or more (almost completely withered)), the “M: Abutilon theophrasti” value (Abutilon theophrasti [1]) was 0 (Herbicidal ratio of 5% or lower (almost no effect)) and the “c: corn, effect on crop grade” value (corn) was 0 (Herbicidal ratio of 5% or lower (almost no effect)). For the same molecule, the “N: Amaranthus retroflexus” value (Amaranthus retroflexus) was 0 (Herbicidal ratio of 5% or lower (almost no effect)), the “M: Abutilon theophrasti” value (Abutilon theophrasti [2]) was 0 (Herbicidal ratio of 5% or lower (almost no effect)) and the “Herbicidal effect grade, B” value (Scirpus juncoides) was 0 (Herbicidal ratio of 5% or lower (almost no effect)). The “herbicidal effect on E, grade 0-5” value (Cyperus difformis) was 1 (Herbicidal ratio of 5% or higher and lower than 20%) and the “J: Alopecurus myosuroides” value (Alopecurus myosuroides) was 0 (Herbicidal ratio of 5% or lower (almost no effect)).
